# Target: P. falciparum apicoplast DNA polymerase (Pf-apPOL) (Plasmodium falciparum, UniProt Q8ILY1)
# Assay: Fluorescence-based high-throughput DNA polymerase assay (molecular beacon), primary screen and dose-response;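 as to % inhibition ApPOL 90': test concentration in µM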;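 as to % inhibition apPOL 180': test concentration in µM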
# Assay type: biochemical
# Method in brief: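 Single-point screening used 10 µM compound with 20 nM polymerase, 20 nM hairpin substrate and 6 µM dNTPs for 90 min at 25 °C. Confirmatory titrations (2.5–80 µM) followed fluorescence at three times, and IC50 was derived from a fit including a cooperativity term n.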
# [1] = 186 hits, value of the hit list (primary screen); unit not given; 90 min, 10 µM
# [2] = primary screen value, 'DNA Pol' only; 90 min, 10 µM
# [3] = supplemental file 2, sheet IC50 nontoxic compounds; Pf-apPOL
# P. falciparum apicoplast DNA polymerase (Pf-apPOL), sequence (Q8ILY1 entry or part of it): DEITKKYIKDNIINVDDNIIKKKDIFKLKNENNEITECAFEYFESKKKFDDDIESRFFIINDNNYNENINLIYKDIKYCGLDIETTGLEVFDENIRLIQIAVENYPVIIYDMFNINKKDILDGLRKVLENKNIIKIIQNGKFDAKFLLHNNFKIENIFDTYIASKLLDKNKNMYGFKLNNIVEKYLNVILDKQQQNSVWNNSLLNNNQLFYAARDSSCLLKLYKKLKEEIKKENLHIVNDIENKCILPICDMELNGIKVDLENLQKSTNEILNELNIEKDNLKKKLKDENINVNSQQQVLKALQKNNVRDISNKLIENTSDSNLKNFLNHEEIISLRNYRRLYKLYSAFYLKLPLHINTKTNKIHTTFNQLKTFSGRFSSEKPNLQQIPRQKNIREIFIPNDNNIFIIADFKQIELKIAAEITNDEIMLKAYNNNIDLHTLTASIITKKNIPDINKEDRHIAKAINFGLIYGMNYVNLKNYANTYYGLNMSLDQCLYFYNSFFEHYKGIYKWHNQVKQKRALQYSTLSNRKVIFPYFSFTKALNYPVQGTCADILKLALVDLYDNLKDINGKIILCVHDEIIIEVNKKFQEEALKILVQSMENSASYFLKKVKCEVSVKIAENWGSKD
smiles,measurement,setting,value
"CO/N=C(\C(=O)N[C@@H]1C(=O)N2C(C(=O)[O-])=C(CSc3nc(=O)c([O-])nn3C)CSC12)c1csc(N)n1.[Na+].[Na+] (some centres unmarked) [Molecule 83, CO/N=C(/c1csc(n1)N)\C(=O)N[C@@H]1C(=O)N2C1SCC(=C2C(=O)[O-])CSc1nc(=O)c(nn1C)[O-].[Na+].[Na+]]",DNA Pol,[1],48
same,% inhibition Apo pol 10',DRC-1; 10'; concentration 2.5,18.7657%
same,% inhibition Apo pol 10',DRC-1; 10'; concentration 5,26.0446%
same,% inhibition Apo pol 10',DRC-1; 10'; concentration 10,38.6298%
same,% inhibition Apo pol 10',DRC-1; 10'; concentration 20,50.9335%
same,% inhibition Apo pol 10',DRC-1; 10'; concentration 40,64.2256%
same,% inhibition Apo pol 10',DRC-1; 10'; concentration 80,74.1492%
same,% inhibition Apol 90',DRC-1; 90'; concentration 2.5,-5.899%
same,% inhibition Apol 90',DRC-1; 90'; concentration 5,-4.018%
same,% inhibition Apol 90',DRC-1; 90'; concentration 10,2.565%
same,% inhibition Apol 90',DRC-1; 90'; concentration 20,10.9979%
same,% inhibition Apol 90',DRC-1; 90'; concentration 40,25.6327%
same,% inhibition Apol 90',DRC-1; 90'; concentration 80,43.9979%
same,% inhibition apPOL 180',DRC-1; 180'; concentration 2.5,-15.6799%
same,% inhibition apPOL 180',DRC-1; 180'; concentration 5,-16.0147%
same,% inhibition apPOL 180',DRC-1; 180'; concentration 10,-9.688%
same,% inhibition apPOL 180',DRC-1; 180'; concentration 20,-2.55%
same,% inhibition apPOL 180',DRC-1; 180'; concentration 40,10.5527%
same,% inhibition apPOL 180',DRC-1; 180'; concentration 80,28.4912%
same,% inhibition Apo pol 5',"DRC-2, 5', concentration 2.5",1.37%
same,% inhibition Apo pol 5',"DRC-2, 5', concentration 5",6%
same,% inhibition Apo pol 5',"DRC-2, 5', concentration 10",18%
same,% inhibition Apo pol 5',"DRC-2, 5', concentration 20",30%
same,% inhibition Apo pol 5',"DRC-2, 5', concentration 40",42%
same,% inhibition Apo pol 5',"DRC-2, 5', concentration 80",54%
same,% inhibition Apol 40',"DRC-2, 40', concentration 2.5",-6%
same,% inhibition Apol 40',"DRC-2, 40', concentration 5",-1.68%
same,% inhibition Apol 40',"DRC-2, 40', concentration 10",9%
same,% inhibition Apol 40',"DRC-2, 40', concentration 20",20%
same,% inhibition Apol 40',"DRC-2, 40', concentration 40",37%
same,% inhibition Apol 40',"DRC-2, 40', concentration 80",59%
same,% inhibition ApPOL 90',"DRC-2, 90', concentration 2.5",-8%
same,% inhibition ApPOL 90',"DRC-2, 90', concentration 5",-7%
same,% inhibition ApPOL 90',"DRC-2, 90', concentration 10",1.87%
same,% inhibition ApPOL 90',"DRC-2, 90', concentration 20",12%
same,% inhibition ApPOL 90',"DRC-2, 90', concentration 40",30%
same,% inhibition ApPOL 90',"DRC-2, 90', concentration 80",56%
same,% inhibition apPOL 180',"DRC-2, 180', concentration 2.5",-10%
same,% inhibition apPOL 180',"DRC-2, 180', concentration 5",-12%
same,% inhibition apPOL 180',"DRC-2, 180', concentration 10",-7%
same,% inhibition apPOL 180',"DRC-2, 180', concentration 20",5%
same,% inhibition apPOL 180',"DRC-2, 180', concentration 40",21%
same,% inhibition apPOL 180',"DRC-2, 180', concentration 80",48%
same,% inhibition Apo pol 5',DRC-2; 5'; concentration 20,30%
same,% inhibition ApPOL 90',DRC-2; 90'; concentration 5,-7%
same,% inhibition ApPOL 90',DRC-2; 90'; concentration 40,30%
same,% inhibition apPOL 180',DRC-2; 180'; concentration 10,-7%
same,DNA Pol,[2],48
CO/N=C(\C(=O)N[C@@H]1C(=O)N2C(C(=O)O)=C(CSc3nc(=O)c(O)nn3C)CSC12)c1csc(N)n1 (some centres unmarked) [Molecule 83],IC50,[3],18.7 µM
"O=c1cc(-c2ccccc2)oc2c(O)c(O)ccc12 [Molecule 84, Oc1ccc2c(c1O)oc(cc2=O)c1ccccc1]",DNA Pol,[1],55
same,% inhibition Apo pol 10',DRC-1; 10'; concentration 2.5,14.1303%
same,% inhibition Apo pol 10',DRC-1; 10'; concentration 5,19.657%
same,% inhibition Apo pol 10',DRC-1; 10'; concentration 10,33.8432%
same,% inhibition Apo pol 10',DRC-1; 10'; concentration 20,42.9919%
same,% inhibition Apo pol 10',DRC-1; 10'; concentration 40,51.8731%
same,% inhibition Apo pol 10',DRC-1; 10'; concentration 80,57.9256%
same,% inhibition Apol 90',DRC-1; 90'; concentration 2.5,6.487%
same,% inhibition Apol 90',DRC-1; 90'; concentration 5,3.595%
same,% inhibition Apol 90',DRC-1; 90'; concentration 10,11.2996%
same,% inhibition Apol 90',DRC-1; 90'; concentration 20,16.5407%
same,% inhibition Apol 90',DRC-1; 90'; concentration 40,24.8113%
same,% inhibition Apol 90',DRC-1; 90'; concentration 80,29.7853%
same,% inhibition apPOL 180',DRC-1; 180'; concentration 2.5,1.7844%
same,% inhibition apPOL 180',DRC-1; 180'; concentration 5,-2.772%
same,% inhibition apPOL 180',DRC-1; 180'; concentration 10,4.166%
same,% inhibition apPOL 180',DRC-1; 180'; concentration 20,7.699%
same,% inhibition apPOL 180',DRC-1; 180'; concentration 40,14.2771%
same,% inhibition apPOL 180',DRC-1; 180'; concentration 80,18.1576%
same,% inhibition Apo pol 5',"DRC-2, 5', concentration 2.5",12%
same,% inhibition Apo pol 5',"DRC-2, 5', concentration 5",18%
same,% inhibition Apo pol 5',"DRC-2, 5', concentration 10",26%
same,% inhibition Apo pol 5',"DRC-2, 5', concentration 20",32%
same,% inhibition Apo pol 5',"DRC-2, 5', concentration 40",41%
same,% inhibition Apo pol 5',"DRC-2, 5', concentration 80",42%
same,% inhibition Apol 40',"DRC-2, 40', concentration 2.5",10%
same,% inhibition Apol 40',"DRC-2, 40', concentration 5",13%
same,% inhibition Apol 40',"DRC-2, 40', concentration 10",21%
same,% inhibition Apol 40',"DRC-2, 40', concentration 20",23%
same,% inhibition Apol 40',"DRC-2, 40', concentration 40",32%
same,% inhibition Apol 40',"DRC-2, 40', concentration 80",36%
same,% inhibition ApPOL 90',"DRC-2, 90', concentration 2.5",8%
same,% inhibition ApPOL 90',"DRC-2, 90', concentration 5",10%
same,% inhibition ApPOL 90',"DRC-2, 90', concentration 10",16%
same,% inhibition ApPOL 90',"DRC-2, 90', concentration 20",17%
same,% inhibition ApPOL 90',"DRC-2, 90', concentration 40",26%
same,% inhibition ApPOL 90',"DRC-2, 90', concentration 80",32%
same,% inhibition apPOL 180',"DRC-2, 180', concentration 2.5",1.74%
same,% inhibition apPOL 180',"DRC-2, 180', concentration 5",3.63%
same,% inhibition apPOL 180',"DRC-2, 180', concentration 10",7.41%
same,% inhibition apPOL 180',"DRC-2, 180', concentration 20",6%
same,% inhibition apPOL 180',"DRC-2, 180', concentration 40",16%
same,% inhibition apPOL 180',"DRC-2, 180', concentration 80",23%
same,% inhibition Apo pol 5',DRC-2; 5'; concentration 10,26%
same,% inhibition Apo pol 5',DRC-2; 5'; concentration 20,32%
same,% inhibition Apol 40',DRC-2; 40'; concentration 2.5,10%
same,% inhibition Apol 40',DRC-2; 40'; concentration 20,23%
same,% inhibition Apol 40',DRC-2; 40'; concentration 40,32%
same,% inhibition ApPOL 90',DRC-2; 90'; concentration 5,10%
same,% inhibition ApPOL 90',DRC-2; 90'; concentration 10,16%
same,% inhibition ApPOL 90',DRC-2; 90'; concentration 40,26%
same,% inhibition ApPOL 90',DRC-2; 90'; concentration 80,32%
same,% inhibition apPOL 180',DRC-2; 180'; concentration 40,16%
same,% inhibition apPOL 180',DRC-2; 180'; concentration 80,23%
same,DNA Pol,[2],55
O=c1cc(-c2ccccc2)oc2c(O)c(O)ccc12 [Molecule 84],IC50,[3],32.2 µM
Cc1ccccc1NC(=O)Cn1ccc2c(=O)[nH]ccc21 [Molecule 85],IC50,[3],9.12 µM
Cc1nc2c(oc3nc(-c4ccco4)c4c(c32)CC(C)(C)OC4)c(-c2ccccc2)c1C(=O)O [Molecule 86],IC50,[3],7.41 µM

# From PMC9090415, “Discovery of small molecule inhibitors of Plasmodium falciparum apicoplast DNA polymerase” (Journal of Enzyme Inhibition and Medicinal Chemistry, 2022)
